Reference: ChEMBL document CHEMBL4229394 (Bioorg Med Chem Lett, 2018)

Assays:
[1] = test system: HEK293; experiment: Cytotoxicity against HEK293 cells co-expressing human GABA-B1/B2 receptor and Cre-luc plasmid at 50 to 100 uM after 3 hrs by CellTiter 96 aqueous one solution reagent based assay; type: cell-based; details: hek293, 3 h
[2] = target: GABA-B receptor (Homo sapiens, UniProt O75899+Q9UBS5); experiment: Agonist activity at human GABA-B1/B2 receptor expressed in HEK293/Cre-luc cells assessed as inhibition of forskolin-stimulated cAMP accumulation after 3 hrs by luciferase reporter gene assay; type: cell-based
[3] = target: GABA-A receptor; alpha-1/beta-2/gamma-2 (Rattus norvegicus, UniProt P18508+P62813+P63138); experiment: Agonist activity at rat GFP-fused GABA-A alpha1/beta2/gamma2 receptor expressed in human tsA201 cells at -60 mV holding potential by whole-cell voltage clamp method; type: cell-based
[4] = target: 5-hydroxytryptamine receptor 2C (Homo sapiens) (UniProt P28335); experiment: Inhibition of 5-HT2C receptor (unknown origin) by radio ligand displacement assay relative to control; details: concentration not given here
[5] = target: 5-hydroxytryptamine receptor 2B (Homo sapiens) (UniProt P41595); experiment: Inhibition of 5-HT2B receptor (unknown origin) by radio ligand displacement assay relative to control; details: concentration not given here
[6] = target: 5-hydroxytryptamine receptor 2A (Homo sapiens) (UniProt P28223); experiment: Inhibition of 5-HT2A receptor (unknown origin) by radio ligand displacement assay relative to control; details: concentration not given here
[7] = target: 5-hydroxytryptamine receptor 1E (Homo sapiens) (UniProt P28566); experiment: Inhibition of 5-HT1E receptor (unknown origin) by radio ligand displacement assay relative to control; details: concentration not given here
[8] = target: 5-hydroxytryptamine receptor 1D (Homo sapiens) (UniProt P28221); experiment: Inhibition of 5-HT1D receptor (unknown origin) by radio ligand displacement assay relative to control; details: concentration not given here
[9] = target: Alpha-1D adrenergic receptor (Homo sapiens) (UniProt P25100); experiment: Inhibition of alpha-1D adrenergic receptor (unknown origin) by radio ligand displacement assay relative to control; details: concentration not given here
[10] = target: 5-hydroxytryptamine receptor 1B (Homo sapiens) (UniProt P28222); experiment: Inhibition of 5-HT1B receptor (unknown origin) by radio ligand displacement assay relative to control; details: concentration not given here
[11] = target: 5-hydroxytryptamine receptor 1A (Homo sapiens) (UniProt P08908); experiment: Inhibition of 5-HT1A receptor (unknown origin) by radio ligand displacement assay relative to control; details: concentration not given here
[12] = target: Muscarinic acetylcholine receptor M5 (Homo sapiens) (UniProt P08912); experiment: Inhibition of M5 receptor (unknown origin) by radio ligand displacement assay relative to control; details: concentration not given here
[13] = target: Muscarinic acetylcholine receptor M4 (Homo sapiens) (UniProt P08173); experiment: Inhibition of M4 receptor (unknown origin) by radio ligand displacement assay relative to control; details: concentration not given here
[14] = target: Muscarinic acetylcholine receptor M3 (Homo sapiens) (UniProt P20309); experiment: Inhibition of M3 receptor (unknown origin) by radio ligand displacement assay relative to control; details: concentration not given here
[15] = target: Muscarinic acetylcholine receptor M2 (Homo sapiens) (UniProt P08172); experiment: Inhibition of M2 receptor (unknown origin) by radio ligand displacement assay relative to control; details: concentration not given here
[16] = target: Muscarinic acetylcholine receptor M1 (Homo sapiens) (UniProt P11229); experiment: Inhibition of M1 receptor (unknown origin) by radio ligand displacement assay relative to control; details: concentration not given here
[17] = target: Histamine H4 receptor (Homo sapiens) (UniProt Q9H3N8); experiment: Inhibition of H4 receptor (unknown origin) by radio ligand displacement assay relative to control; details: concentration not given here
[18] = target: Histamine H3 receptor (Homo sapiens) (UniProt Q9Y5N1); experiment: Inhibition of H3 receptor (unknown origin) by radio ligand displacement assay relative to control; details: concentration not given here
[19] = target: Histamine H2 receptor (Homo sapiens) (UniProt P25021); experiment: Inhibition of H2 receptor (unknown origin) by radio ligand displacement assay relative to control; details: concentration not given here
[20] = target: Histamine H1 receptor (Homo sapiens) (UniProt P35367); experiment: Inhibition of H1 receptor (unknown origin) by radio ligand displacement assay relative to control; details: concentration not given here
[21] = target: Mu-type opioid receptor (Homo sapiens) (UniProt P35372); experiment: Inhibition of MOR (unknown origin) by radio ligand displacement assay relative to control; details: concentration not given here
[22] = target: Kappa-type opioid receptor (Homo sapiens) (UniProt P41145); experiment: Inhibition of KOR (unknown origin) by radio ligand displacement assay relative to control; details: concentration not given here
[23] = target: Delta-type opioid receptor (Homo sapiens) (UniProt P41143); experiment: Inhibition of DOR (unknown origin) by radio ligand displacement assay relative to control; details: concentration not given here
[24] = target: D(1B) dopamine receptor (Homo sapiens) (UniProt P21918); experiment: Inhibition of D5 receptor (unknown origin) by radio ligand displacement assay relative to control; details: concentration not given here
[25] = target: D(4) dopamine receptor (Homo sapiens) (UniProt P21917); experiment: Inhibition of D4 receptor (unknown origin) by radio ligand displacement assay relative to control; details: concentration not given here
[26] = target: D(3) dopamine receptor (Homo sapiens) (UniProt P35462); experiment: Inhibition of D3 receptor (unknown origin) by radio ligand displacement assay relative to control; details: concentration not given here
[27] = target: D(2) dopamine receptor (Homo sapiens) (UniProt P14416); experiment: Inhibition of D2 receptor (unknown origin) by radio ligand displacement assay relative to control; details: concentration not given here
[28] = target: D(1A) dopamine receptor (Homo sapiens) (UniProt P21728); experiment: Inhibition of D1 receptor (unknown origin) by radio ligand displacement assay relative to control; details: concentration not given here
[29] = target: Sodium-dependent serotonin transporter (Homo sapiens) (UniProt P31645); experiment: Inhibition of SERT (unknown origin) by radio ligand displacement assay relative to control; details: concentration not given here
[30] = target: Sodium-dependent noradrenaline transporter (Homo sapiens) (UniProt P23975); experiment: Inhibition of NET (unknown origin) by radio ligand displacement assay relative to control; details: concentration not given here
[31] = target: Sodium-dependent dopamine transporter (Homo sapiens) (UniProt Q01959); experiment: Inhibition of DAT (unknown origin) by radio ligand displacement assay relative to control; details: concentration not given here
[32] = target: Beta-3 adrenergic receptor (Homo sapiens) (UniProt P13945); experiment: Inhibition of beta-3 adrenergic receptor (unknown origin) by radio ligand displacement assay relative to control; details: concentration not given here
[33] = target: Beta-2 adrenergic receptor (Homo sapiens) (UniProt P07550); experiment: Inhibition of beta-2 adrenergic receptor (unknown origin) by radio ligand displacement assay relative to control; details: concentration not given here
[34] = target: Beta-1 adrenergic receptor (Homo sapiens) (UniProt P08588); experiment: Inhibition of beta-1 adrenergic receptor (unknown origin) by radio ligand displacement assay relative to control; details: concentration not given here
[35] = target: Alpha-2A adrenergic receptor (Homo sapiens) (UniProt P08913); experiment: Inhibition of alpha-2A adrenergic receptor (unknown origin) by radio ligand displacement assay relative to control; details: concentration not given here
[36] = target: Alpha-1B adrenergic receptor (Homo sapiens) (UniProt P35368); experiment: Inhibition of alpha-1B adrenergic receptor (unknown origin) by radio ligand displacement assay relative to control; details: concentration not given here
[37] = target: Alpha-1A adrenergic receptor (Homo sapiens) (UniProt P35348); experiment: Inhibition of alpha-1A adrenergic receptor (unknown origin) by radio ligand displacement assay relative to control; details: concentration not given here
[38] = target: 5-hydroxytryptamine receptor 3A (Homo sapiens) (UniProt P46098); experiment: Inhibition of 5-HT3 receptor (unknown origin) by radio ligand displacement assay relative to control; details: concentration not given here
[39] = target: 5-hydroxytryptamine receptor 5A (Homo sapiens) (UniProt P47898); experiment: Inhibition of 5-HT5A receptor (unknown origin) by radio ligand displacement assay relative to control; details: concentration not given here
[40] = target: 5-hydroxytryptamine receptor 6 (Homo sapiens) (UniProt P50406); experiment: Inhibition of 5-HT6 receptor (unknown origin) by radio ligand displacement assay relative to control; details: concentration not given here
[41] = target: 5-hydroxytryptamine receptor 7 (Homo sapiens) (UniProt P34969); experiment: Inhibition of 5-HT7 receptor (unknown origin) by radio ligand displacement assay relative to control; details: concentration not given here
[42] = target: Sigma non-opioid intracellular receptor 1 (Rattus norvegicus) (UniProt Q9R0C9); experiment: Inhibition of rat sigma-1 receptor by radio ligand displacement assay relative to control; details: concentration not given here
[43] = target: Sigma intracellular receptor 2 (Rattus norvegicus) (UniProt Q5U3Y7); experiment: Inhibition of rat sigma-2 receptor by radio ligand displacement assay relative to control; details: concentration not given here

Sequence of GABA-B receptor (Q9UBS5 whole entry, the tested form may be a part): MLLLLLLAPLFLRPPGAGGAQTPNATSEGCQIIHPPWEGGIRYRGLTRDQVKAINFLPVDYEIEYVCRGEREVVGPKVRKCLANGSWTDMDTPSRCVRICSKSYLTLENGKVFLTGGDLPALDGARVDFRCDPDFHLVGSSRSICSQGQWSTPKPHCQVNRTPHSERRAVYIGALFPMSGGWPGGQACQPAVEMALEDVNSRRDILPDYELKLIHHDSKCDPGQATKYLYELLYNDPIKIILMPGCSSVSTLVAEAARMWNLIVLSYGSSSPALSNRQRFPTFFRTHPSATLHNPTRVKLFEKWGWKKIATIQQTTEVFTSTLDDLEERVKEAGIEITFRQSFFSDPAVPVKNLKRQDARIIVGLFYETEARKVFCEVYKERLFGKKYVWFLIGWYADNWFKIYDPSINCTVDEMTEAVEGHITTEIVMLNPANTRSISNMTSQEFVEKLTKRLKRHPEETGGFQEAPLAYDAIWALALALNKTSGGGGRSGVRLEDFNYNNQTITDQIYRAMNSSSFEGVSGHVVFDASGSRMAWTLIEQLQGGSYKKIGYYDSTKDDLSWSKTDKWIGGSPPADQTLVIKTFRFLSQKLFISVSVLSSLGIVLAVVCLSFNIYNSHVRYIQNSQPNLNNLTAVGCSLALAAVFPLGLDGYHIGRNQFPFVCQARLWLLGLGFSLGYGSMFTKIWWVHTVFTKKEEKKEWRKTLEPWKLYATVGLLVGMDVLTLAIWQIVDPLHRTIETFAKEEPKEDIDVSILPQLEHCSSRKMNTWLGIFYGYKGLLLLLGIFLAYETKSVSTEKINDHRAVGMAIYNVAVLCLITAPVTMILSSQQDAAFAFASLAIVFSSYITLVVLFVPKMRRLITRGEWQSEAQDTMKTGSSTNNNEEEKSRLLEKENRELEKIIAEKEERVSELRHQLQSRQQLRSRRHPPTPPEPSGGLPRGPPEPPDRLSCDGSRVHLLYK
Sequence of GABA-B receptor (O75899 whole entry, the tested form may be a part): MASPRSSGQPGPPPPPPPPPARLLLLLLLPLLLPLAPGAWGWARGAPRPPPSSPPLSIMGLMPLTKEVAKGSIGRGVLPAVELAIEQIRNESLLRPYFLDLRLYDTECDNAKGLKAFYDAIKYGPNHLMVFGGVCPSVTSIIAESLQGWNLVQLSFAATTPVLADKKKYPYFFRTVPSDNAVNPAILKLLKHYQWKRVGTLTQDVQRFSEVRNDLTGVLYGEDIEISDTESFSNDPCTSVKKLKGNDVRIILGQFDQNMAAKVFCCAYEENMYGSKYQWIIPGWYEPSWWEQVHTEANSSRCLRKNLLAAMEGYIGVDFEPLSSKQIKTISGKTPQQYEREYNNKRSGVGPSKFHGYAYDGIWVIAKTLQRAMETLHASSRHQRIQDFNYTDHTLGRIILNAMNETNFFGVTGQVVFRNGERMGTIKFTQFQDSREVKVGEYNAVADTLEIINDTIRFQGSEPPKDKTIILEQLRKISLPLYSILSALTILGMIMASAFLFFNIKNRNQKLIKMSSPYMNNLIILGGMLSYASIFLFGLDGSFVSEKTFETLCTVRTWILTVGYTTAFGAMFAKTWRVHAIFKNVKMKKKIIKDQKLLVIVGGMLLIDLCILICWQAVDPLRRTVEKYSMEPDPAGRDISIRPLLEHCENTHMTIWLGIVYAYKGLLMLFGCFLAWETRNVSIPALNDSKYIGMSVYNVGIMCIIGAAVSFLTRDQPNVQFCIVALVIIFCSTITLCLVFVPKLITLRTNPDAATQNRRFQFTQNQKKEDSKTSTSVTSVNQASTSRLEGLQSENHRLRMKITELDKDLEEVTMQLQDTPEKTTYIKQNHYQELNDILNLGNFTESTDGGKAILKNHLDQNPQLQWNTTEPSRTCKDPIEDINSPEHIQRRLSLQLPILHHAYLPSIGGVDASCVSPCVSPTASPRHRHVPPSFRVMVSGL
Sequence of GABA-A receptor; alpha-1/beta-2/gamma-2 (P18508 whole entry, the tested form may be a part): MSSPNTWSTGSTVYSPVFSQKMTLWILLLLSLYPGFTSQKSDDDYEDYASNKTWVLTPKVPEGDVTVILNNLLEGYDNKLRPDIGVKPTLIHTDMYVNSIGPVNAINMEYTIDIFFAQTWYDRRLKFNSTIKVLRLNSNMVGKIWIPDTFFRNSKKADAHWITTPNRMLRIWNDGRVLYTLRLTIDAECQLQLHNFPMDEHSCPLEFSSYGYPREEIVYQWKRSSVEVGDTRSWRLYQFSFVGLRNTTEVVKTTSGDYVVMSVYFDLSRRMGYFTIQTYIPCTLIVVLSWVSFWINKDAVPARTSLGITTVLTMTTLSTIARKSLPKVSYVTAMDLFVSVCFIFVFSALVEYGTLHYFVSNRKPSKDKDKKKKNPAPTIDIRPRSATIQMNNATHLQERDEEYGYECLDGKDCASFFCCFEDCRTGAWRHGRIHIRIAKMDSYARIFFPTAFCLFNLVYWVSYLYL
Sequence of GABA-A receptor; alpha-1/beta-2/gamma-2 (P62813 whole entry, the tested form may be a part): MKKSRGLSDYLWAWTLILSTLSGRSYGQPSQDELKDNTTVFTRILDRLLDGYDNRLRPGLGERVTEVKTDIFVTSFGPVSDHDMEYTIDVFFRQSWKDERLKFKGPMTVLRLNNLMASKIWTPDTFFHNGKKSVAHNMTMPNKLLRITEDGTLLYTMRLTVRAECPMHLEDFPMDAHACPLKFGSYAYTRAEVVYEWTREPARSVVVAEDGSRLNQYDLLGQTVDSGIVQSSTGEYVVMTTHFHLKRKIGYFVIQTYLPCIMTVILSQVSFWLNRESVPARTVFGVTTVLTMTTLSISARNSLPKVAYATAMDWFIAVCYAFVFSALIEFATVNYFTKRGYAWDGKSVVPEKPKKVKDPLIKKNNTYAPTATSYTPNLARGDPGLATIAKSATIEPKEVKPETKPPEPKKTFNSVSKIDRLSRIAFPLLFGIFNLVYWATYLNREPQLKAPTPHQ
Sequence of GABA-A receptor; alpha-1/beta-2/gamma-2 (P63138 whole entry, the tested form may be a part): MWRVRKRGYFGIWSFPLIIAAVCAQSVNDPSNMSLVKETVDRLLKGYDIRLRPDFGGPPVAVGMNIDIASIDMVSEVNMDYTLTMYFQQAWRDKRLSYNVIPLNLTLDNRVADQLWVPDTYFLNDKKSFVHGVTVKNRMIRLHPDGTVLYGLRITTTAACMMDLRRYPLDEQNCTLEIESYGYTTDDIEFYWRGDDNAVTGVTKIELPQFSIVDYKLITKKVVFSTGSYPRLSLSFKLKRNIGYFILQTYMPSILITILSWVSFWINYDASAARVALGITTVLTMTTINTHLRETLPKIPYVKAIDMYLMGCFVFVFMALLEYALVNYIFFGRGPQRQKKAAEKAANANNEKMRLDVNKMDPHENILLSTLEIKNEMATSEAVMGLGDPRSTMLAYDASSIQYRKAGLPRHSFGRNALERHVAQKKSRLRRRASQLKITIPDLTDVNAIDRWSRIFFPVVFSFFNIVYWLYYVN
Sequence of Beta-2 adrenergic receptor (Homo sapiens) (P07550 whole entry, looked up): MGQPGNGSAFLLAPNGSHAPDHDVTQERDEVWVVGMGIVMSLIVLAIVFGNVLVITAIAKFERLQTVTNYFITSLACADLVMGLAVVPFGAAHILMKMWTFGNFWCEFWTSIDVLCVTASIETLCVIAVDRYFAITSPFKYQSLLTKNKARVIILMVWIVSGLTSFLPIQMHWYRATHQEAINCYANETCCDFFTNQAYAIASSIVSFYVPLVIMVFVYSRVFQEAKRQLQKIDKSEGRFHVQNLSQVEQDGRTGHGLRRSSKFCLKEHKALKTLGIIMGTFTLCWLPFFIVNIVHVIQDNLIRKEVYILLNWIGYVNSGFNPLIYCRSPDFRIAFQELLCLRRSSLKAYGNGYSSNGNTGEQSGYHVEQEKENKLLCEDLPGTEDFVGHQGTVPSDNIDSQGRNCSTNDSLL
Sequence of Sigma non-opioid intracellular receptor 1 (Rattus norvegicus) (Q9R0C9 whole entry): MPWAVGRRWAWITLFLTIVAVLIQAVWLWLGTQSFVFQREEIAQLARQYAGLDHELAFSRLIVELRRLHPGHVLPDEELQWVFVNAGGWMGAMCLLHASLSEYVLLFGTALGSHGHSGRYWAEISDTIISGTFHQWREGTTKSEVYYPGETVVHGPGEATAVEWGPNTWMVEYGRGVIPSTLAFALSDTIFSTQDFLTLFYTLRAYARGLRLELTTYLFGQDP
Sequence of Beta-1 adrenergic receptor (Homo sapiens) (P08588 whole entry, looked up): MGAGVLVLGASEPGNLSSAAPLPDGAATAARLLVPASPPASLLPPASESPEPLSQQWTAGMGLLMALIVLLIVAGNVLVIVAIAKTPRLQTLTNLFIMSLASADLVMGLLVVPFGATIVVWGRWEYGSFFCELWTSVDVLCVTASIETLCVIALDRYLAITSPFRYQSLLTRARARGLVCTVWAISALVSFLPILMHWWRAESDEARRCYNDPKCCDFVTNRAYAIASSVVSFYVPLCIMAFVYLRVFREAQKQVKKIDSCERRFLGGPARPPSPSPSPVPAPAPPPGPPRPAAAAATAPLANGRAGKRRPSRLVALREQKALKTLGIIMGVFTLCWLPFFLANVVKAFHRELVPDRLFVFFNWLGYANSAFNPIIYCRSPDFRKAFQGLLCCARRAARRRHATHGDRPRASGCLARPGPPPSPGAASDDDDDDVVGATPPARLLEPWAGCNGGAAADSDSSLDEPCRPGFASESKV
Sequence of 5-hydroxytryptamine receptor 2B (Homo sapiens) (P41595 whole entry): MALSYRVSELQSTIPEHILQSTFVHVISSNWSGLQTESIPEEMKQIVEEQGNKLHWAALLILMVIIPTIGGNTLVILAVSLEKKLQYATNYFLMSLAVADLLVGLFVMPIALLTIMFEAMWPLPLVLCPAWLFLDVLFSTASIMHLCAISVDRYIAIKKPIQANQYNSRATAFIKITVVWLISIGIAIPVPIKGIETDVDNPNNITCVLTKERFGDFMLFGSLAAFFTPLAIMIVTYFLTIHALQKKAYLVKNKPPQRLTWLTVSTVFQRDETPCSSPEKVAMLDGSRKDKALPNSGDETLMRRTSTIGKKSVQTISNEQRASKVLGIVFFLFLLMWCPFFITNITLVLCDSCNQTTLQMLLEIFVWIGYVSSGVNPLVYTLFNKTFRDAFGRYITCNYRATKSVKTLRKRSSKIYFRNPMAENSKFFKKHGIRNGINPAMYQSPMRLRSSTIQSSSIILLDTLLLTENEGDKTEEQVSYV

CCc1ccc(C(O)C(F)(F)C(=O)C23CC4CC(CC(C4)C2)C3)cc1 (stereo unspecified)
> 100 µM: EC50 [2]
Toxic: Activity [1]

O=C(C12CC3CC(CC(C3)C1)C2)C(F)(F)C(NS(=O)(=O)c1ccccc1)c1ccccc1 (stereo unspecified)
> 100 µM: EC50 [2]

O=C(c1ccc2ccccc2c1)C(F)(F)C(NCc1ccccc1)c1ccccc1 (stereo unspecified)
91 µM: EC50 [2]
> 100 µM: EC50 [3]

O=C(C12CC3CC(CC(C3)C1)C2)C(F)(F)C(O)c1ccc(Cl)cc1 (stereo unspecified)
Toxic: Activity [1]
> 100 µM: EC50 [2]

O=C(C12CC3CC(CC(C3)C1)C2)C(F)(F)C(O)c1ccccc1 (stereo unspecified)
> 100 µM: EC50 [2]
Toxic: Activity [1]

CC(C)CC(=O)C(F)(F)C(NC(=O)OC(C)(C)C)c1ccccc1 (stereo unspecified)
> 100 µM: EC50 [2]

O=C(C12CC3CC(CC(C3)C1)C2)C(F)(F)C(O)/C=C/c1ccccc1 (stereo unspecified)
> 100 µM: EC50 [3]

O=C1c2ccccc2C(=O)N1CC(O)C(F)(F)C(=O)C12CC3CC(CC(C3)C1)C2 (stereo unspecified)
> 100 µM: EC50 [2]

CC(C)(C)OC(=O)NC(c1ccccc1)C(F)(F)C(=O)c1ccc2c(c1)OCO2 (stereo unspecified)
> 100 µM: EC50 [2]

O=C(c1ccc2ccccc2c1)C(F)(F)C(NS(=O)(=O)c1ccccc1)c1ccccc1 (stereo unspecified)
32.7 µM: EC50 [2]
> 100 µM: EC50 [3]

CC(C)(C)OC(=O)NC(c1ccccc1)C(F)(F)C(=O)c1ccc2ccccc2c1 (stereo unspecified)
> 100 µM: EC50 [3]
19.4 µM: EC50 [2]
< 30%: inhibition [4] | inhibition [5] | inhibition [6] | inhibition [7] | inhibition [8] | inhibition [9] | inhibition [10] | inhibition [11] | inhibition [12] | inhibition [13] | inhibition [14] | inhibition [15] | inhibition [16] | inhibition [17] | inhibition [18] | inhibition [19] | inhibition [20] | inhibition [21] | inhibition [22] | inhibition [23] | inhibition [24] | inhibition [25] | inhibition [26] | inhibition [27] | inhibition [28] | inhibition [29] | inhibition [30] | inhibition [31] | inhibition [32] | inhibition [33] | inhibition [34] | inhibition [35] | inhibition [36] | inhibition [37] | inhibition [38] | inhibition [39] | inhibition [40] | inhibition [41] | inhibition [42] | inhibition [43]

CC(=O)c1ccc(C(O)C(F)(F)C(=O)c2ccccn2)cc1 (stereo unspecified)
> 100 µM: EC50 [2]

CC(=O)c1ccc(C(O)C(F)(F)C(=O)C23CC4CC(CC(C4)C2)C3)cc1 (stereo unspecified)
< 30%: inhibition [4] | inhibition [5] | inhibition [6] | inhibition [7] | inhibition [8] | inhibition [9] | inhibition [10] | inhibition [11] | inhibition [12] | inhibition [13] | inhibition [14] | inhibition [15] | inhibition [16] | inhibition [17] | inhibition [18] | inhibition [19] | inhibition [20] | inhibition [21] | inhibition [22] | inhibition [23] | inhibition [24] | inhibition [25] | inhibition [26] | inhibition [27] | inhibition [28] | inhibition [29] | inhibition [30] | inhibition [31] | inhibition [32] | inhibition [33] | inhibition [34] | inhibition [35] | inhibition [36] | inhibition [37] | inhibition [38] | inhibition [39] | inhibition [40] | inhibition [41] | inhibition [42] | inhibition [43]

C/C=C/C=C/C(NCc1ccccc1)C(F)(F)C(=O)c1ccc2ccccc2c1 (stereo unspecified)
> 100 µM: EC50 [2]

O=C(c1ccc(Cl)cc1)C(F)(F)C(NCc1ccccc1)c1ccccc1 (stereo unspecified)
> 100 µM: EC50 [3]
57.4 µM: EC50 [2]
